Legend:
[1] = test system: normal NK cells expanded with K562-aAPC; assay: percent inhibition of viability; higher = more inhibition; conditions: 72 h, IL-2 2.5 ng/mL
Experimental: (§1)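 Drug sensitivity and resistance testing on K562-aAPC-expanded normal NK cells: 5 concentrations (10-fold steps over a 10,000-fold range), 72 h at 37 °C, viability by CellTiter-Glo normalised to DMSO and benzethonium chloride controls; DSS from the fitted curve.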

[2] = test system: DERL-7 (IL-2 2.5 ng/mL); assay: as above; conditions: 72 h
[3] = test system: IMC-1 (IL-2 20 ng/mL); assay: as above; conditions: 72 h
[4] = test system: KAI3 (IL-2 2.5 ng/mL); assay: as above; conditions: 72 h
[5] = test system: KHYG-1 (IL-2 2.5 ng/mL); assay: as above; conditions: 72 h
[6] = test system: NK-92 (IL-2 2.5 ng/mL); assay: as above; conditions: 72 h
[7] = test system: NK-YS (IL-2 2.5 ng/mL); assay: as above; conditions: 72 h
[8] = test system: NKL (IL-2 2.5 ng/mL); assay: as above; conditions: 72 h
[9] = test system: SNK-6 (IL-2 2.5 ng/mL); assay: as above; conditions: 72 h
[10] = test system: YT (IL-2 2.5 ng/mL); assay: as above; conditions: 72 h
[11] = test system: normal primary NK cells, pool 1 (3 donors) (IL-2 2.5 ng/mL); assay: as above; conditions: 72 h
[12] = test system: normal primary NK cells, pool 1 (3 donors), resting (IL-2 0 ng/mL); assay: as above; conditions: 72 h
[13] = test system: normal primary NK cells, pool 2 (3 donors) (IL-2 2.5 ng/mL); assay: as above; conditions: 72 h
[14] = test system: normal primary NK cells, pool 3 (3 donors) (IL-2 2.5 ng/mL); assay: as above; conditions: 72 h
[15] = test system: normal NK cells expanded with K562-aAPC; assay: drug sensitivity score (DSS) (DSS units); higher = more sensitive; extreme values may be limits of the assay; conditions: 72 h; IL-2 2.5 ng/mL
Experimental: as §1

[16] = test system: DERL-7 (IL-2 2.5 ng/mL); assay: as above; conditions: 72 h
[17] = test system: IMC-1 (IL-2 20 ng/mL); assay: as above; conditions: 72 h
[18] = test system: KAI3 (IL-2 2.5 ng/mL); assay: as above; conditions: 72 h
[19] = test system: KHYG-1 (IL-2 2.5 ng/mL); assay: as above; conditions: 72 h
[20] = test system: NK-92 (IL-2 2.5 ng/mL); assay: as above; conditions: 72 h
[21] = test system: NK-YS (IL-2 2.5 ng/mL); assay: as above; conditions: 72 h
[22] = test system: NKL (IL-2 2.5 ng/mL); assay: as above; conditions: 72 h
[23] = test system: SNK-6 (IL-2 2.5 ng/mL); assay: as above; conditions: 72 h
[24] = test system: YT (IL-2 2.5 ng/mL); assay: as above; conditions: 72 h
[25] = test system: normal primary NK cells, pool 1 (3 donors) (IL-2 2.5 ng/mL); assay: as above; conditions: 72 h
[26] = test system: normal primary NK cells, pool 1 (3 donors), resting (IL-2 0 ng/mL); assay: as above; conditions: 72 h
[27] = test system: normal primary NK cells, pool 2 (3 donors) (IL-2 2.5 ng/mL); assay: as above; conditions: 72 h
[28] = test system: normal primary NK cells, pool 3 (3 donors) (IL-2 2.5 ng/mL); assay: as above; conditions: 72 h

CCCS(=O)(=O)Nc1ccc(F)c(C(=O)c2c[nH]c3ncc(-c4ccc(Cl)cc4)cc23)c1F [Vemurafenib] (max concentration tested 10000 nM)
percent inhibition of viability [%]
Conditions | 1 nM | 10 nM | 100 nM | 1000 nM | 10000 nM
[1] | -5.54 | -6.29 | -9.37 | -4.54 | 5.8
[2] | 3.23 | 0.38 | 4.34 | 15.4 | 79.5
[3] | -6.37 | -7.47 | -1.05 | -3.36 | 37.8
[4] | -2.25 | -4.57 | -1.04 | 12.3 | 75.2
[5] | 1.21 | -7.43 | 3.43 | 42.5 | 105
[6] | -0.79 | 1.62 | 12 | 22.6 | 89.5
[7] | -2.8 | -10.1 | -3.62 | 0.91 | 77.1
[8] | -13.6 | -17.7 | -12.3 | 12.2 | 73.1
[9] | -12.9 | -2.01 | -17 | -0.04 | 92.6
[10] | 1.23 | -1.61 | 4.12 | 16.2 | 98.7
[11] | -3.98 | -7.14 | 1.09 | 0.31 | -3.81
[12] | 3.45 | -3.02 | 6.61 | 23.4 | 23.8
[13] | -1.54 | -1.23 | 6.03 | 0.86 | 9.89
[14] | 0.76 | -2.71 | 6.1 | 0.26 | 0.17

Conditions | drug sensitivity score
[15] | 0
[16] | 6.92
[17] | 1.59
[18] | 6.2
[19] | 11.1
[20] | 8.16
[21] | 4.38
[22] | 6.06
[23] | 5.17
[24] | 8.15
[25] | 0
[26] | 4.54
[27] | 0
[28] | 0

CS(=O)(=O)c1ccc(C(=O)Nc2ccc(Cl)c(-c3ccccn3)c2)c(Cl)c1 [Vismodegib] (max concentration tested 10000 nM)
percent inhibition of viability [%]
Conditions | 1 nM | 10 nM | 100 nM | 1000 nM | 10000 nM
[1] | -6.55 | -2.58 | -4.57 | 6.27 | 3.14
[2] | 5.54 | 5.58 | 5.06 | 6.24 | 36.2
[3] | -2.4 | 2.13 | -1.82 | 2.66 | 8.93
[4] | -6.47 | -10.6 | -10.8 | 8.7 | 6.77
[5] | -7.27 | -4.1 | -4.53 | -3.56 | 13.7
[6] | 1.83 | 1.49 | -0.7 | 17.8 | 59.3
[7] | -6.25 | -5.83 | -1.92 | 0.14 | 14.4
[8] | -2.06 | -5.75 | 8.65 | 9.14 | 39.8
[9] | -24.4 | -21.3 | -33.1 | -9.73 | 9.74
[10] | -2.78 | -9.59 | 3.13 | -6.38 | 24.6
[11] | -0.96 | 12.3 | 5.5 | 3.58 | 12.3
[12] | -4.18 | 4.86 | 12.4 | 12.3 | 11.2
[13] | -4.51 | 8.63 | 4.94 | 7.5 | 11.8
[14] | -5.07 | -0.78 | 8.43 | -1.07 | 0.11

Conditions | drug sensitivity score
[15] | 0
[16] | 2.77
[17] | 0
[18] | 0
[19] | 0.07
[20] | 5.87
[21] | 0.2
[22] | 3.21
[23] | 0
[24] | 0.65
[25] | 0
[26] | 1.51
[27] | 0.05
[28] | 0

CCn1c(=O)c(-c2cc[nH]n2)cc2c(C)nc(N)nc21 [Voxtalisib] (max concentration tested 10000 nM)
percent inhibition of viability [%]
Conditions | 1 nM | 10 nM | 100 nM | 1000 nM | 10000 nM
[1] | 0.41 | -5.61 | 9.15 | 33.9 | 60.2
[2] | 5.41 | 4.21 | 13.1 | 64 | 90.5
[3] | -10.6 | -2.45 | -10.8 | -9.7 | 16.3
[4] | -4.78 | -4.19 | 6.21 | 42.3 | 75.8
[5] | -9 | -5.41 | -5.59 | 17.8 | 79.4
[6] | -8.65 | 11.8 | 10.3 | 47.6 | 82.8
[7] | -5.07 | 0.15 | 3.01 | 23.8 | 69.5
[8] | -8.64 | -12.9 | -1.2 | 46.7 | 80.6
[9] | -15.8 | -23.8 | -25.5 | -0.25 | 72.2
[10] | -4.53 | -3.54 | 0.98 | 38.7 | 88.6
[11] | -5.05 | 2.34 | 10.6 | 28.2 | 49.9
[12] | -7.13 | 11.3 | 7.69 | 23 | 43.4
[13] | -10.4 | 2.91 | 12.1 | 20.6 | 40.3
[14] | -5.2 | -0.71 | 13.1 | 17.8 | 35.1

Conditions | drug sensitivity score
[15] | 7.48
[16] | 13.8
[17] | 0.15
[18] | 9.29
[19] | 7.22
[20] | 10.7
[21] | 7.02
[22] | 10.1
[23] | 3.96
[24] | 9.92
[25] | 6.3
[26] | 5.05
[27] | 4.74
[28] | 4.03
